For orientation: Ki means the equilibrium dissociation constant of an inhibitor or competing ligand from its target.

Structures can show the parent of a compound that is named as a salt.

For the assay, the target named is binding of tritiated LTB4 to guinea pig lung membranes (Cavia porcellus, UniProt H0VYV8). The assay can be described thus: biochemical. To be noted: read-out: pKi (mean -log Ki) (converted).
binding of tritiated LTB4 to guinea pig lung membranes, sequence (H0VYV8 1-348): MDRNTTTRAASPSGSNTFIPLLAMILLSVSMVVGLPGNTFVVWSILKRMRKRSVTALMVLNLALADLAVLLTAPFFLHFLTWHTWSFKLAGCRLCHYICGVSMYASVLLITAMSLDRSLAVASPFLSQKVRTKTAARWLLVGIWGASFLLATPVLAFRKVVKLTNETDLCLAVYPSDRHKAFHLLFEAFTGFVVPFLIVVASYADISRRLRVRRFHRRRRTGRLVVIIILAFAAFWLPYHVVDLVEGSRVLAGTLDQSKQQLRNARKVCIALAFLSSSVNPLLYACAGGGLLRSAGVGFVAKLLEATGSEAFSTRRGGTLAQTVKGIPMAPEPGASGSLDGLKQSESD
Protocol: The effectiveness of compounds of Formula I to inhibit the binding of tritiated LTB4 to guinea pig lung membranes was determined as follows.
The binding reaction was terminated by the addition of 1 mL ice cold wash buffer (25 mM Tris-HCl, pH 7.5) followed immediately by vacuum filtration over Whatman GF/C glass fiber filters using a Brandel (Gaithersburg, Md.) 48 place harvester. The filters were washed three times with 1 mL of wash buffer. Retained radioactivity was determined by liquid scintillation counting at 50% counting efficiency using Ready Protein Plus cocktail (Beckman, Fullerton, Calif.). Nondisplaceable binding was determined in the presence of 1 μM LTB4 and was usually less than 10% of total binding. […] The data reported below is the mean -log Ki, otherwise known as the pKi, for n experiments.
Regarding `CCc1cc(-c2ccccc2)c(O)cc1OCCCOc1cc(-c2ccccc2)ccc1CCC(=O)O` [Example 62, 3-[3-(2-Ethyl-5-hydroxy-4-phenylphenoxy)propoxy][1,1'-biphenyl]-4-propanoicacid disodium salt monohydrate], the inhibitory constant (Ki) was 57.5 nM.
As for `CCCc1c(OCCCOc2cc(O)c(-c3ccccc3)cc2CC)cccc1Oc1ccccc1-c1nnn[nH]1` [Example 63, 5-Ethyl-4-[3-[2-propyl-3-[2-(2H-tetrazol-5-yl)phenoxy]phenoxy]propoxy][1,1'-biphenyl]-2-ol disodium salt sesquihydrate], the Ki is 11.5 nM.
As for `CCc1cc(-c2ccccc2)c(O)cc1OCCCOc1ccc2c(=O)c3ccccc3oc2c1CCC(=O)O` [Example 64, 3-[4-[3-[3-(2-Ethyl-5-hydroxy-4-phenylphenoxy)propoxy]-9-oxo-9H-xanthene]]propanoicacid sodium salt hemihydrate], the figure is 14.1 nM.
Take `CCCc1c(OCCCOc2cc(O)c(-c3ccccc3)cc2CC)cccc1Oc1cccc(F)c1C(=O)O` [Example 65, 2-Fluoro-6-[2-propyl-3-[3-(2-ethyl-5-hydroxy-4-phenylphenoxy)propoxy]phenoxy]benzoic acid disodium salt]: the inhibition constant (Ki) was 12.3 nM.
As for `CCc1cc(-c2ccc(F)cc2)c(O)cc1OCCCOc1ccc2c(=O)c3cc(C(=O)O)ccc3oc2c1CCC(=O)O` [Example 67, 3-[4-[7-Carboxy-9-oxo-3-[3-[2-ethyl-4-(4-fluorophenyl)-5-hydroxyphenoxy]propoxy]-9H-xanthene]] propanoic acid disodium salt trihydrate], the figure is 0.024 nM; as for `CCc1cc(-c2ccc(F)cc2)c(O)cc1OCCCOc1ccc2c(=O)c3ccccc3oc2c1CCC(=O)O` [Example 68, 3-[4-[9-Oxo-3-[3-[2-ethyl-4-(4-fluorophenyl)-5-hydroxyphenoxy]propoxy]-9H-xanthene]]propanoic acid], 3.47 nM.
With `CCc1cc(-c2ccc(F)cc2)c(O)cc1OCCCOc1ccc(NC(=O)CCCC(=O)N2CCOCC2)cc1CCC(=O)O` [Example 69], the Ki was 12.9 nM.
As for `CCCc1c(OCCCOc2cc(O)c(-c3ccc(F)cc3)cc2CC)cccc1Oc1cccc(F)c1C(=O)O` [Example 70, 2-Fluoro-6-[2-propyl-3-[3-[2-ethyl-5-hydroxy-4-(4-fluorophenyl)phenoxy]propoxy]phenoxy]benzoic acid disodium salt hydrate], the figure is 8.13 nM; as for `CCCc1c(OCCCOc2cc(O)c(-c3ccc(F)cc3)cc2CC)cccc1Oc1cc(F)ccc1C(=O)O` [Example 71, 4-Fluoro-2-[2-propyl-3-[3-[2-ethyl-5-hydroxy-4-(4-fluorophenyl)phenoxy]propoxy]phenoxy]benzoic acid], 17 nM; as for `CCCc1c(OCCCCCOc2cc(O)c(-c3ccc(F)cc3)cc2CC)cccc1Oc1ccccc1C(=O)O` [Example 72, 2-[2-Propyl-3-[5-[2-ethyl-5-hydroxy-4-(4-fluorophenyl)phenoxy]pentoxy]phenoxy]benzoic acid], 6.61 nM.
As for `CCCc1c(OCCCCOc2cc(O)c(-c3ccc(F)cc3)cc2CC)cccc1Oc1ccccc1C(=O)O` [Example 73, 2-[2-Propyl-3-[4-[2-ethyl-5-hydroxy-4-(4-fluorophenyl)phenoxy]butoxy]phenoxy]benzoic acid sesquihydrate], the Ki was 17.8 nM.
With `CCc1cc(-c2ccc(F)cc2)c(O)cc1OCCCOc1cccc(Oc2ccccc2C(=O)O)c1CC(C)C` [Example 74, 2-[2-(2-Methylpropyl)-3-[3-[2-ethyl-5-hydroxy-4-(4-fluorophenyl)phenoxy]propoxy]phenoxy]benzoic acid], the inhibition constant (Ki) is 13.8 nM.
Then `CCCCc1c(OCCCOc2cc(O)c(-c3ccc(F)cc3)cc2CC)cccc1Oc1ccccc1C(=O)O` [Example 75, 2-[2-Butyl-3-[3-[2-ethyl-5-hydroxy-4-(4-fluorophenyl)phenoxy]propoxy]phenoxy]benzoic acid hydrate], with 16.2 nM.

(Values after US5462954A, “Substituted phenyl phenol leukotriene antagonists” (Eli Lilly and Company, priority 1994, dated 1995).)
